Data: PubChem BioAssay (NCI)
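Grown in 96-well plates, cells were treated for 48 hours with each compound at five concentrations. Insufficient inhibition: endpoint recorded as highest concentration tested. The concentration for full growth arrest is given as TGI.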

Legend:
Assay in all cases: NCI anticancer screen, dose series, 48 h
CAKI-1 renal = test system: CAKI-1 renal
HCT-116 colon = test system: HCT-116 colon
HOP-62 NSCLC = test system: HOP-62 NSCLC
EKVX NSCLC = test system: EKVX NSCLC
UACC-257 melanoma = test system: UACC-257 melanoma
HS 578T breast = test system: HS 578T breast
MDA-N = test system: MDA-N
OVCAR-3 ovarian = test system: OVCAR-3 ovarian
UACC-62 melanoma = test system: UACC-62 melanoma
NCI-H23 lung = test system: NCI-H23 lung
CCRF-CEM leukemia = test system: CCRF-CEM leukemia
NCI-H460 lung = test system: NCI-H460 lung
HCT-15 colon = test system: HCT-15 colon
TK-10 renal = test system: TK-10 renal
SK-OV-3 ovarian = test system: SK-OV-3 ovarian
SNB-19 CNS = test system: SNB-19 CNS
SK-MEL-2 melanoma = test system: SK-MEL-2 melanoma
RPMI-8226 leukemia = test system: RPMI-8226 leukemia
IGROV1 ovarian = test system: IGROV1 ovarian
NCI-H226 lung = test system: NCI-H226 lung
NCI/ADR-RES ovarian = test system: NCI/ADR-RES ovarian
MDA-MB-231 breast = test system: MDA-MB-231 breast
A498 renal = test system: A498 renal
OVCAR-8 ovarian = test system: OVCAR-8 ovarian
786-0 renal = test system: 786-0 renal
KM12 colon = test system: KM12 colon
M14 melanoma = test system: M14 melanoma
PC-3 prostate = test system: PC-3 prostate
LOX IMVI melanoma = test system: LOX IMVI melanoma
A549 NSCLC = test system: A549 NSCLC
NCI-H522 lung = test system: NCI-H522 lung
OVCAR-5 ovarian = test system: OVCAR-5 ovarian
HT29 colon = test system: HT29 colon
SW-620 colon = test system: SW-620 colon
HCC-2998 colon = test system: HCC-2998 colon
SR leukemia = test system: SR leukemia
MOLT-4 leukemia = test system: MOLT-4 leukemia
SK-MEL-28 melanoma = test system: SK-MEL-28 melanoma
HOP-92 NSCLC = test system: HOP-92 NSCLC
K-562 leukemia = test system: K-562 leukemia
T-47D breast = test system: T-47D breast
SF-295 CNS = test system: SF-295 CNS
MCF7 breast = test system: MCF7 breast
HL-60(TB) leukemia = test system: HL-60(TB) leukemia
ACHN renal = test system: ACHN renal
MALME-3M melanoma = test system: MALME-3M melanoma
MDA-MB-435 = test system: MDA-MB-435
OVCAR-4 ovarian = test system: OVCAR-4 ovarian
SK-MEL-5 melanoma = test system: SK-MEL-5 melanoma
DU-145 prostate = test system: DU-145 prostate
UO-31 renal = test system: UO-31 renal
U251 CNS = test system: U251 CNS
SNB-75 CNS = test system: SNB-75 CNS
COLO 205 colon = test system: COLO 205 colon
SN12C renal = test system: SN12C renal
BT-549 breast = test system: BT-549 breast
SF-268 CNS = test system: SF-268 CNS
SF-539 CNS = test system: SF-539 CNS

CCOC(=O)C(CS)NC(=O)CCCCCCCC(=O)O (stereo not given)
TGI (CAKI-1 renal): > 100 µM | TGI (HCT-116 colon): > 100 µM | TGI (HOP-62 NSCLC): > 100 µM | TGI (EKVX NSCLC): > 100 µM | TGI (UACC-257 melanoma): > 100 µM | TGI (HS 578T breast): > 100 µM | TGI (MDA-N): > 100 µM | TGI (OVCAR-3 ovarian): > 100 µM | TGI (UACC-62 melanoma): > 100 µM | TGI (NCI-H23 lung): > 100 µM | TGI (CCRF-CEM leukemia): > 100 µM | TGI (NCI-H460 lung): > 100 µM | TGI (HCT-15 colon): > 100 µM | TGI (TK-10 renal): > 100 µM | TGI (SK-OV-3 ovarian): > 100 µM | TGI (SNB-19 CNS): > 100 µM | TGI (SK-MEL-2 melanoma): > 100 µM | TGI (RPMI-8226 leukemia): > 100 µM | TGI (IGROV1 ovarian): > 100 µM | TGI (NCI-H226 lung): > 100 µM | TGI (NCI/ADR-RES ovarian): > 100 µM | TGI (MDA-MB-231 breast): > 100 µM | TGI (A498 renal): > 100 µM | TGI (OVCAR-8 ovarian): > 100 µM | TGI (786-0 renal): > 100 µM | TGI (KM12 colon): > 100 µM | TGI (M14 melanoma): > 100 µM | TGI (PC-3 prostate): > 100 µM | TGI (LOX IMVI melanoma): > 100 µM | TGI (A549 NSCLC): > 100 µM | TGI (NCI-H522 lung): > 100 µM | TGI (OVCAR-5 ovarian): > 100 µM | TGI (HT29 colon): > 100 µM | TGI (SW-620 colon): > 100 µM | TGI (HCC-2998 colon): > 100 µM | TGI (SR leukemia): > 100 µM | TGI (MOLT-4 leukemia): > 100 µM | TGI (SK-MEL-28 melanoma): > 100 µM | TGI (HOP-92 NSCLC): > 100 µM | TGI (K-562 leukemia): > 100 µM | TGI (T-47D breast): > 100 µM | TGI (SF-295 CNS): > 100 µM | TGI (MCF7 breast): > 100 µM | TGI (HL-60(TB) leukemia): > 100 µM | TGI (ACHN renal): > 100 µM | TGI (MALME-3M melanoma): > 100 µM | TGI (MDA-MB-435): > 100 µM | TGI (OVCAR-4 ovarian): > 100 µM | TGI (SK-MEL-5 melanoma): > 100 µM | TGI (DU-145 prostate): > 100 µM | TGI (UO-31 renal): > 100 µM | TGI (U251 CNS): > 100 µM | TGI (SNB-75 CNS): > 100 µM | TGI (COLO 205 colon): > 100 µM | TGI (SN12C renal): > 100 µM | TGI (BT-549 breast): > 100 µM

Cc1c2ccccc2c(C)n2c1nc1cc3ccccc3cc12
TGI (CAKI-1 renal): 2.89 µM | TGI (HCT-116 colon): 2.71 µM | TGI (HOP-62 NSCLC): 2.76 µM | TGI (EKVX NSCLC): 9.75 µM | TGI (UACC-257 melanoma): > 10 µM | TGI (HS 578T breast): 3.56 µM | TGI (MDA-N): 2.89 µM | TGI (OVCAR-3 ovarian): 2.18 µM | TGI (UACC-62 melanoma): 3.9 µM | TGI (NCI-H23 lung): 2.8 µM | TGI (CCRF-CEM leukemia): 6.65 µM | TGI (NCI-H460 lung): 2.55 µM | TGI (HCT-15 colon): 3.67 µM | TGI (TK-10 renal): 8.43 µM | TGI (SK-OV-3 ovarian): 7.74 µM | TGI (SNB-19 CNS): 5.01 µM | TGI (SK-MEL-2 melanoma): 4.99 µM | TGI (RPMI-8226 leukemia): 6.13 µM | TGI (IGROV1 ovarian): 2.53 µM | TGI (NCI/ADR-RES ovarian): 2.38 µM | TGI (MDA-MB-231 breast): 2.71 µM | TGI (OVCAR-8 ovarian): 2.21 µM | TGI (786-0 renal): 2.18 µM | TGI (KM12 colon): 2.62 µM | TGI (M14 melanoma): 2.76 µM | TGI (PC-3 prostate): 2.79 µM | TGI (A549 NSCLC): 3.6 µM | TGI (NCI-H522 lung): 4.88 µM | TGI (OVCAR-5 ovarian): 2.29 µM | TGI (HT29 colon): 2.15 µM | TGI (SW-620 colon): > 10 µM | TGI (HCC-2998 colon): 3.27 µM | TGI (SR leukemia): 7.34 µM | TGI (MOLT-4 leukemia): 3.78 µM | TGI (SK-MEL-28 melanoma): 2.92 µM | TGI (HOP-92 NSCLC): 8.89 µM | TGI (K-562 leukemia): > 10 µM | TGI (T-47D breast): > 10 µM | TGI (SF-295 CNS): 2.28 µM | TGI (MCF7 breast): 1.6 µM | TGI (HL-60(TB) leukemia): 4.59 µM | TGI (ACHN renal): > 10 µM | TGI (MALME-3M melanoma): 2.63 µM | TGI (MDA-MB-435): 3.07 µM | TGI (OVCAR-4 ovarian): 3.12 µM | TGI (SK-MEL-5 melanoma): 4.46 µM | TGI (DU-145 prostate): 2.78 µM | TGI (SF-268 CNS): 3.32 µM | TGI (U251 CNS): 3.7 µM | TGI (SNB-75 CNS): 3.48 µM | TGI (COLO 205 colon): 2.82 µM | TGI (SF-539 CNS): 2.86 µM | TGI (SN12C renal): > 10 µM | TGI (BT-549 breast): 3.98 µM
